From patent publication US20110207926A1, “NOVEL DIHYDROTRIAZINE DERIVATIVE” (HAMARI CHEMICALS, LTD., priority 2008, published 2011)
Where two headings read alike, the source gives them in different places.

Key:
[1] = tested on: MRSA ATCC 33591; assay: Bactericidal activity test (MBC measurement); assay type: cell-based, methicillin-resistant Staphylococcus aureus
Experimental: (§1) Each strain was cultured in Trypticase Soy agar medium for 18 to 20 hr, suspended in 0.1% peptone saline, and prepared to OD 600 nm, 1.0 McFarland. The suspension was further diluted with 0.1% peptone saline to give a test bacteria solution (targeted value; 2×10^7 CFU/mL).
(§2) At 0.5, 1 and 3 min from the start of the reaction, a part of the reaction mixture was sampled and mixed with an equal amount of a neutralizing agent (10% Tween 80, 3% lecithin/aqueous solution) to terminate the bactericidal reaction. The reaction mixture was inoculated to a 96 well microplate dispensed with 180 μL of Tripticase Soy liquid medium in advance, and statically cultured at 37° C. for 20 to 24 hr. Thereafter, the presence or absence of growth was visually evaluated, and the minimum concentration at which growth was not observed was taken as the minimal bactericidal concentration (MBC value) of each action time. The numerical values in the Tables show MBC, the unit is μg/mL, S. aureus means Staphylococcus aureus, MRSA means methicillin-resistant Staphylococcus aureus, E. coli means Escherichia coli, and P. aeruginosa means Pseudomonas aeruginosa.

[2] = tested on: P. aeruginosa PAO-1; assay: Bactericidal activity test (MBC measurement); assay type: cell-based, Pseudomonas aeruginosa
Experimental: as §1, §2

[3] = tested on: P. aeruginosa ATCC 27853; assay: Bactericidal activity test (MBC measurement); assay type: cell-based, Pseudomonas aeruginosa
Experimental: as §1, §2

[4] = tested on: S. aureus ATCC 6538; assay: Bactericidal activity test (MBC measurement); assay type: cell-based, Staphylococcus aureus
Experimental: as §1, §2

[5] = tested on: E. coli ATCC 25922; assay: Bactericidal activity test (MBC measurement); assay type: cell-based, Escherichia coli
Experimental: as §1, §2

[6] = Water solubility test (Japanese Pharmacopoeia solubility test method); assay type: physicochemical; conditions: 20±5° C., dissolution in 30 min; for evaluation (water solubility): criteria of Table 9
Experimental: According to the Japanese Pharmacopoeia solubility test method, the compounds of Examples 1 and 7 of the present invention and the corresponding N-methyl unsubstituted compounds were examined for water solubility. To be specific, a test substance was powderized, placed in water and the mixture was vigorously shaken for 30 sec every 5 min at 20±5° C. The solubility was evaluated based on the degree of dissolution in 30 min by reference to the following Table 9.

[7] = Skin sensitivity test, LLNA-BrdU method (lymph node weight); assay type: in vivo; conditions: 5 w/v % in acetone/olive oil 4:1, transdermal to auricle once a day for 3 days, mice
Experimental: For application of an external bactericidal/disinfectant agent to the skin, the sensitivity (allergenicity) is desirably as small as possible. […] The sensitivity was evaluated by a Local lymph node assay (LLNA) method using Bromodeoxyuridine (BrdU). In this test, measurement of the amount of BrdU uptaken by the lymph node using an ELISA kit was not performed, and the evaluation was based solely on the weight increase of the lymph node.
8-Week-old female CBA/JN Crlj mice were grouped (3 per group) according to the adequate strafication method based on the body weight (about 20 g) on the first day of administration. A test substance was prepared to 5 w/v % for each test substance by using a mixed solution of acetone and olive oil (v/v=4:1, A00). This was repeatedly administered transdermally to the auricle of the mice at 25 μL/auricle (50 for both auricles) once a day for 3 days. Two days after the final administration, BrdU 10 mg/mL (0.5 mL/mouse) was intraperitoneally administered. Three days after the final transdermal administration (next day of BrdU administration), carbon dioxide was given by inhalation to a comfortable death, and the auricle lymph node was isolated and the weight thereof was measured.

[8] = Staphylococcus aureus, 0.5 min, MRSA ATCC 33591, action time 0.5 min, read-out: MBC
[9] = Staphylococcus aureus, 1 min, MRSA ATCC 33591, action time 1 min, read-out: MBC
[10] = Staphylococcus aureus, 0.05 h, MRSA ATCC 33591, action time 3 min, read-out: MBC
[11] = Pseudomonas aeruginosa, PAO1, 0.5 min, P. aeruginosa PAO-1, action time 0.5 min, read-out: MBC
[12] = Pseudomonas aeruginosa, PAO1, 1 min, P. aeruginosa PAO-1, action time 1 min, read-out: MBC
[13] = Pseudomonas aeruginosa, PAO1, 0.05 h, P. aeruginosa PAO-1, action time 3 min, read-out: MBC
[14] = Pseudomonas aeruginosa, ATCC27853, 0.5 min, P. aeruginosa ATCC 27853, action time 0.5 min, read-out: MBC
[15] = Pseudomonas aeruginosa, ATCC27853, 1 min, P. aeruginosa ATCC 27853, action time 1 min, read-out: MBC
[16] = Pseudomonas aeruginosa, ATCC27853, 0.05 h, P. aeruginosa ATCC 27853, action time 3 min, read-out: MBC
[17] = Staphylococcus aureus, ATCC6538, 0.5 min, S. aureus ATCC 6538, action time 0.5 min, read-out: MBC
[18] = Staphylococcus aureus, ATCC6538, 1 min, S. aureus ATCC 6538, action time 1 min, read-out: MBC
[19] = Staphylococcus aureus, ATCC6538, 0.05 h, S. aureus ATCC 6538, action time 3 min, read-out: MBC
[20] = Escherichia coli, ATCC25922, 0.5 min, E. coli ATCC 25922, action time 0.5 min, read-out: MBC
[21] = Escherichia coli, ATCC25922, 1 min, E. coli ATCC 25922, action time 1 min, read-out: MBC
[22] = Escherichia coli, ATCC25922, 0.05 h, E. coli ATCC 25922, action time 3 min, read-out: MBC

Row | SMILES | MBC [1, 8] [µg/mL] | MBC [1, 9] [µg/mL] | MBC [1, 10] [µg/mL] | MBC [2, 11] [µg/mL] | MBC [2, 12] [µg/mL] | MBC [2, 13] [µg/mL] | MBC [3, 14] [µg/mL] | MBC [3, 15] [µg/mL] | MBC [3, 16] [µg/mL] | MBC [4, 17] [µg/mL] | MBC [4, 18] [µg/mL] | MBC [4, 19] [µg/mL] | MBC [5, 20] [µg/mL] | MBC [5, 21] [µg/mL] | MBC [5, 22] [µg/mL] | also measured
1 | CCCCCCCCCNC(=N)NC(=N)N(C)Cc1ccccc1.Cl.Cl [Example 30, N^5-nonyl-N^1-methyl-N^1-benzyl-biguanide dihydrochloride] | > 200 | > 100 | 25 | 12.5 | 6.25 | 6.25 | 6.25 | 6.25 | 6.25 | 200 | 100 | 25 | 12.5 | 12.5 | 12.5 | –
2 | CCCCCCCCN(C)C1=NC(C)(C)NC(NCc2ccc(Cl)cc2)=N1 [Example 1, N^4-octyl-N^4-methyl-1,6-dihydro-6,6-dimethyl-N^2— (4-chlorobenzyl)-1,3,5-triazine-2,4-diamine acetate] | 50 | 25 | 12.5 | 12.5 | 12.5 | 12.5 | 12.5 | 12.5 | 12.5 | 50 | 12 | 6.25 | 12.5 | 12.5 | 12.5 | water (mL) to dissolve 1 g [6]: <0.5 mL; evaluation (water solubility) [6]: very soluble (less than 1 mL)
3 | CC(=O)O.CCCCCCCCN(C)C1=NC(C)(C)NC(N(C)Cc2ccccc2)=N1 [Example 6, N^4-octyl-N^4-methyl-1,6-dihydro-6,6-dimethyl-N^2-benzyl-N^2-methyl-1,3,5-triazine-2,4-diamine acetate] | 200 | – | – | 25 | – | – | 25 | – | – | > 200 | – | – | 25 | – | – | –
4 | CCCCCCCCN(C)C(=N)NC(=N)NCc1ccc(Cl)c(Cl)c1.Cl [Example 28, N^5-octyl-N^5-methyl-N^1-(3,4-dichlorobenzyl)biguanide hydrochloride] | 50 | 12.5 | 12.5 | 12.5 | 12.5 | 6.25 | 25 | 25 | 12.5 | 25 | 12.5 | 12.5 | 6.25 | 6.25 | 6.25 | –
5 | CC(=O)O.CCCCCCCCCNC1=NC(C)(C)NC(N(C)Cc2ccccc2)=N1 [Example 4, 1,6-dihydro-6,6-dimethyl-N^4-nonyl-N^2-benzyl-N^2-methyl-1,3,5-triazine-2,4-diamine acetate] | 25 | – | – | 25 | – | – | 25 | – | – | 100 | – | – | 12.5 | – | – | –
6 | CC(=O)O.CCCCCCCCN(C)C1=NC(C)(C)NC(NCc2ccc(Cl)c(Cl)c2)=N1 [Example 2, N^4-octyl-N^4-methyl-1,6-dihydro-6,6-dimethyl-N^2— (3,4-dichlorobenzyl)-1,3,5-triazine-2,4-diamine acetate] | 25 | 25 | 12.5 | 25 | 25 | 12.5 | 25 | 25 | 12.5 | 25 | 25 | 12.5 | 12.5 | 6.25 | 6.25 | –
7 | CCCCCCCCNC1=NC(C)(C)NC(NCc2ccc(Cl)cc2)=N1 [Comp. Ex. 1, reference compound] | – | – | – | – | – | – | – | – | – | – | – | – | – | – | – | water (mL) to dissolve 1 g [6]: 110 mL; evaluation (water solubility) [6]: slightly soluble (not less than 100 mL less than 1,000 mL)
8 | CCCCCCCCNC1=NC(C)(C)NC(NCc2ccc(C)cc2)=N1 [Comp. Ex. 2, reference compound] | – | – | – | – | – | – | – | – | – | – | – | – | – | – | – | water (mL) to dissolve 1 g [6]: 50 mL; evaluation (water solubility) [6]: sparingly soluble (not less than 30 mL less than 100 mL)
9 | CCCCCCCCNC1=NC(C)(C)NC(Nc2ccccc2)=N1 [Ref. Ex. 4, 1,6-dihydro-6,6-dimethyl-4-octylamino-2-phenylamino-1,3,5-triazine acetate, reference compound] | – | – | – | – | – | – | – | – | – | – | – | – | – | – | – | SI value (Stimulation index, lymph node weight ratio to solvent group) [7]: 4.4
10 | CCCCCCCCCCNC(=N)NC(=N)N(C)Cc1ccccc1.Cl.Cl [Example 29, N^5-decyl-N′-methyl-N′-benzyl-biguanide dihydrochloride] | – | – | – | – | – | – | – | – | – | – | – | – | – | – | – | MBC ([1]; MRSA ATCC 33591, action time 0.5 min): 200 µg/mL; MBC ([1]; MRSA ATCC 33591, action time 1 min): 200 µg/mL; MBC ([1]; MRSA ATCC 33591, action time 3 min): 50 µg/mL; MBC ([2]; P. aeruginosa PAO-1, action time 0.5 min): 12.5 µg/mL; MBC ([2]; P. aeruginosa PAO-1, action time 1 min): 12.5 µg/mL; MBC ([2]; P. aeruginosa PAO-1, action time 3 min): 6.25 µg/mL; MBC ([3]; P. aeruginosa ATCC 27853, action time 0.5 min): 12.5 µg/mL; MBC ([3]; P. aeruginosa ATCC 27853, action time 1 min): 12.5 µg/mL; MBC ([3]; P. aeruginosa ATCC 27853, action time 3 min): 6.25 µg/mL; MBC ([4]; S. aureus ATCC 6538, action time 0.5 min): 200 µg/mL; MBC ([4]; S. aureus ATCC 6538, action time 1 min): 100 µg/mL; MBC ([4]; S. aureus ATCC 6538, action time 3 min): 12.5 µg/mL; MBC ([5]; E. coli ATCC 25922, action time 0.5 min): 6.25 µg/mL; MBC ([5]; E. coli ATCC 25922, action time 1 min): 6.25 µg/mL; MBC ([5]; E. coli ATCC 25922, action time 3 min): 6.25 µg/mL
11 | CCCCCCCCNC1=NC(C)(C)N=C(NCC2CCCCC2)N1 [Ref. Ex. 3, 4-octylamino-2-cyclohexylmethylamino-1,6-dihydro-6,6-dimethyl-1,3,5-triazine acetate, reference compound] | – | – | – | – | – | – | – | – | – | – | – | – | – | – | – | SI value (Stimulation index, lymph node weight ratio to solvent group) [7]: 4.6
